The text below walks through data of patent US6552014B2, “Methods of inhibiting platelet activation with selective serotonin reuptake inhibitors” (HeartDrug Research, L.L.C., priority 1999, dated 2003).

One data set relates to P-selectin. Description: Flow cytometry of platelet antigen expression, platelet rich plasma. Type of data set: cell-based, human. Conditions: PRP. The text has this: For ex vivo assessment of the SSRIs effect on a PAM, a level of a PAM can be assessed by flow cytometry by first obtaining a sample that comprises platelets and then contacting the sample with a platelet activation agonist, such as phorbol myristate acetate (PMA), ADP (adenosine diphosphate), thrombin, collagen, and/or TRAP (thrombin receptor activating peptide), under conditions suitable for activation of platelets in the sample. The sample is in contact with the agonist preferably for a period of time effective to maximally activate the platelets. […] Then the formation of the complex in the sample is determined (detected or measured). […] The blood-ACD mixture was centrifuged at 1000 r.p.m. for 10 minutes at room temperature. […] The PRP was then centrifuged at 3000 r.p.m. for 10 minutes. […] All cells were then divided into ten plastic capped tubes. Nine portions of washed platelets were incubated with 5 μfluorescein isothiocyanate (FITC)-conjugated antibodies in the dark at +4 °C for 30 minutes, and one part remained unstained and served as a negative control. […] The instrument was calibrated daily with fluorescence beads (CaliBRITE; Becton Dickinson) and measured FITC-conjugated fluorescence intensity. All parameters were obtained using four decade logarithmic amplification. The data was collected and stored in list mode, and then analyzed using CELLQuest® (version 1.2.2) software. Procedures are described in detail in (Gurbel, P. […] Serebruany, V. […] The levels of various PAMs were assess from samples of human volunteers.
For orientation: In flow cytometry, cells or beads pass a laser one at a time.

The conditions of data set [1]: in vivo; cited from earlier work.
[2] abbreviates: healthy volunteers, desmethylsertraline 31.1 ng/ml.
The mark [3] stands for this setting: healthy volunteers, desmethylsertraline 64.2 ng/ml.
The mark [4] stands for this setting: healthy volunteers, desmethylsertraline 143 ng/ml.
Where [5] appears, read: post-angioplasty patient on aspirin, desmethylsertraline 31.1 ng/ml.
Setting [6] is: post-angioplasty patient on aspirin, desmethylsertraline 64.2 ng/ml.
Where [7] appears, read: post-angioplasty patient on aspirin, desmethylsertraline 143 ng/ml.

For the compound `N[C@H]1CC[C@@H](c2ccc(Cl)c(Cl)c2)c2ccccc21` [Desmethyl sertraline, N-desmethylsertraline], the “P-selectin (mean) log fluorescence intensity” value in the data set with P-selectin (setting [2]) came to 11.8; in the data set on P-selectin (setting [3]) it was 10.5; in the data set with P-selectin (setting [4]), 13.5; with P-selectin (setting [5]), 15; in the data set with P-selectin (setting [6]), 11; in the data set on P-selectin (setting [7]), 13.4. Besides, the “P-selectin (peak) log fluorescence intensity” value is listed as 459 with P-selectin (setting [2]); 494 in the data set on P-selectin (setting [3]); 398 in the data set with P-selectin (setting [4]); 322 in the data set with P-selectin (setting [5]); 537 in the data set with P-selectin (setting [6]); 378 in the data set on P-selectin (setting [7]).

Take `CN[C@H]1CC[C@@H](c2ccc(Cl)c(Cl)c2)c2ccccc21` [sertraline]: in data set [1], the half life was 25 to 32 h.
